In PubChem BioAssay AID2060894 (Molecular Pharmacology Branch, DTP, NCI, 2025):

System: K12877-001-R-J1-PDC complex spheroid viability
Assay: Anticancer human tumor K12877-001-R-J1-PDC patient-derived lung adenocarcinoma cell line growth inhibition [RAS]
Conditions: for IC50: curve of first compound; for viability, T/C: stronger effect = lower value
Method in brief: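 Agents were tested in combination matrices in half-log decrements from a top concentration at or near clinical Cmax (10 microM if undetermined). Targets were multi-cell spheroids of tumour lines plus HUVEC and MSC stromal cells.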
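Also: spheroids exposed to agents for one week before readout.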
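For viability, T/C in this document: tumour cells co-cultured with HUVEC and mesenchymal stem cells in spheroids.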

## CC(=O)OC12COC1CC(O)C1(C)C(=O)C(O)C3=C(C)C(OC(=O)C(O)C(NC(=O)OC(C)(C)C)c4ccccc4)CC(O)(C(OC(=O)c4ccccc4)C21)C3(C)C (configuration not stated) + C=CC(=O)N1CCN(c2nc(OCC3CCCN3C)nc3c(F)c(-c4nc(N)cc(C)c4C(F)(F)F)c(Cl)cc23)C(C)C1
Second compound 0.00316 µM
  IC50: < 31.6 nM
Second compound 0.01 µM
  IC50: < 31.6 nM
Second compound 0.0316 µM
  IC50: < 31.6 nM
Second compound 0.1 µM
  IC50: < 31.6 nM
Second compound 0.316 µM
  IC50: < 31.6 nM
Second compound 1 µM
  IC50: < 31.6 nM
Second compound 0.00316 µM, first compound 0.0316 µM
  viability, T/C: 5.23%
Second compound 0.00316 µM, first compound 0.1 µM
  viability, T/C: 4.77%
Second compound 0.00316 µM, first compound 0.316 µM
  viability, T/C: 3.44%
Second compound 0.00316 µM, first compound 1 µM
  viability, T/C: 4.18%
Second compound 0.00316 µM, first compound 3.16 µM
  viability, T/C: 4.77%
Second compound 0.00316 µM, first compound 10 µM
  viability, T/C: 16.1%
Second compound 0.01 µM, first compound 0.0316 µM
  viability, T/C: 5.39%
Second compound 0.01 µM, first compound 0.1 µM
  viability, T/C: 5.01%
Second compound 0.01 µM, first compound 0.316 µM
  viability, T/C: 3.61%
Second compound 0.01 µM, first compound 1 µM
  viability, T/C: 2.92%
Second compound 0.01 µM, first compound 3.16 µM
  viability, T/C: 3.84%
Second compound 0.01 µM, first compound 10 µM
  viability, T/C: 13.6%
Second compound 0.0316 µM, first compound 0.0316 µM
  viability, T/C: 6.48%
Second compound 0.0316 µM, first compound 0.1 µM
  viability, T/C: 4.68%
Second compound 0.0316 µM, first compound 0.316 µM
  viability, T/C: 3.7%
Second compound 0.0316 µM, first compound 1 µM
  viability, T/C: 2.91%
Second compound 0.0316 µM, first compound 3.16 µM
  viability, T/C: 3.42%
Second compound 0.0316 µM, first compound 10 µM
  viability, T/C: 10.1%
Second compound 0.1 µM, first compound 0.0316 µM
  viability, T/C: 6.61%
Second compound 0.1 µM, first compound 0.1 µM
  viability, T/C: 4.59%
Second compound 0.1 µM, first compound 0.316 µM
  viability, T/C: 2.95%
Second compound 0.1 µM, first compound 1 µM
  viability, T/C: 3.77%
Second compound 0.1 µM, first compound 3.16 µM
  viability, T/C: 5.42%
Second compound 0.1 µM, first compound 10 µM
  viability, T/C: 11.1%
Second compound 0.316 µM, first compound 0.0316 µM
  viability, T/C: 5.94%
Second compound 0.316 µM, first compound 0.1 µM
  viability, T/C: 3.96%
Second compound 0.316 µM, first compound 0.316 µM
  viability, T/C: 3.29%
Second compound 0.316 µM, first compound 1 µM
  viability, T/C: 3.54%
Second compound 0.316 µM, first compound 3.16 µM
  viability, T/C: 4.12%
Second compound 0.316 µM, first compound 10 µM
  viability, T/C: 10.3%
Second compound 1 µM, first compound 0.0316 µM
  viability, T/C: 4.92%
Second compound 1 µM, first compound 0.1 µM
  viability, T/C: 3.77%
Second compound 1 µM, first compound 0.316 µM
  viability, T/C: 4.87%
Second compound 1 µM, first compound 1 µM
  viability, T/C: 4.09%
Second compound 1 µM, first compound 3.16 µM
  viability, T/C: 4.48%
Second compound 1 µM, first compound 10 µM
  viability, T/C: 11%
